Source: BindingDB's records for patent US12247004 (Oxford Drug Design, 2025)

Columns and labels:
Isoleucine--tRNA ligase = Isoleucine--tRNA ligase (Escherichia coli (strain K12), UniProt P00956); assay: Enzyme Inhibition Assay
Description: (§1) Single Point Percentage InhibitionThe activity of the pathogenic aaRSs was monitored by measuring AMP production using the commercial kit AMP-Glo (Promega, Madison, USA).Ligand stock solutions were prepared in 100% DMSO at 10 mM concentration. An assay buffer consisting of 100 mM Tris HCl pH 7.6, 40 mM MgCl, 20 mM KCl and 150 mM NaCl was prepared in dH2O. […] A substrate solution was also prepared in assay buffer with 50 mM L-leucine, 10 mM ATP and 100 mg/mL tRNA.

Leucine--tRNA ligase = Leucine--tRNA ligase (Escherichia coli (strain K12), UniProt P07813); assay: Enzyme Inhibition Assay
Leucine--tRNA ligase, sequence (P07813 whole entry): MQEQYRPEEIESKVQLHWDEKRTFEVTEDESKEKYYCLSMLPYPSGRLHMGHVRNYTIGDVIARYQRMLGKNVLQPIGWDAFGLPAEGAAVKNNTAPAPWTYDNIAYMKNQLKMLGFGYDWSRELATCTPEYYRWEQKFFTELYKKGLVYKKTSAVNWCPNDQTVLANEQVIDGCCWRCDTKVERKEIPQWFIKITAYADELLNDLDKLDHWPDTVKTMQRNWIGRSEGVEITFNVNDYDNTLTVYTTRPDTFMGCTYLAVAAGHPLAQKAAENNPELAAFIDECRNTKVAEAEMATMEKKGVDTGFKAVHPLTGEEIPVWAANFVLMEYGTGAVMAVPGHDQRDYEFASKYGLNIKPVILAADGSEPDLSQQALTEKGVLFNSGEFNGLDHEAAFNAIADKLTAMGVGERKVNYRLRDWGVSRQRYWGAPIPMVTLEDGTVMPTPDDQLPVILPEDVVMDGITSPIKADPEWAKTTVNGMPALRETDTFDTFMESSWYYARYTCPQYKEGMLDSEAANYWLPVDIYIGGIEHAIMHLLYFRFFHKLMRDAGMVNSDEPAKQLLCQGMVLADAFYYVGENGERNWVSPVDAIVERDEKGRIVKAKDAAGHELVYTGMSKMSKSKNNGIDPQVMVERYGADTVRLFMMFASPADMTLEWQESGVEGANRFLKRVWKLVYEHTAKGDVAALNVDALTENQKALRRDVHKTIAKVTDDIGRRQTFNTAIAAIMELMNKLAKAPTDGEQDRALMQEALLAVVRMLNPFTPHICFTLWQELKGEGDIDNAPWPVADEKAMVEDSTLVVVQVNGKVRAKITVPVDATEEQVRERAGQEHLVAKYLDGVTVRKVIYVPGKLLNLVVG
Description: as §1

Isoleucine--tRNA ligase, sequence (P00956 whole entry): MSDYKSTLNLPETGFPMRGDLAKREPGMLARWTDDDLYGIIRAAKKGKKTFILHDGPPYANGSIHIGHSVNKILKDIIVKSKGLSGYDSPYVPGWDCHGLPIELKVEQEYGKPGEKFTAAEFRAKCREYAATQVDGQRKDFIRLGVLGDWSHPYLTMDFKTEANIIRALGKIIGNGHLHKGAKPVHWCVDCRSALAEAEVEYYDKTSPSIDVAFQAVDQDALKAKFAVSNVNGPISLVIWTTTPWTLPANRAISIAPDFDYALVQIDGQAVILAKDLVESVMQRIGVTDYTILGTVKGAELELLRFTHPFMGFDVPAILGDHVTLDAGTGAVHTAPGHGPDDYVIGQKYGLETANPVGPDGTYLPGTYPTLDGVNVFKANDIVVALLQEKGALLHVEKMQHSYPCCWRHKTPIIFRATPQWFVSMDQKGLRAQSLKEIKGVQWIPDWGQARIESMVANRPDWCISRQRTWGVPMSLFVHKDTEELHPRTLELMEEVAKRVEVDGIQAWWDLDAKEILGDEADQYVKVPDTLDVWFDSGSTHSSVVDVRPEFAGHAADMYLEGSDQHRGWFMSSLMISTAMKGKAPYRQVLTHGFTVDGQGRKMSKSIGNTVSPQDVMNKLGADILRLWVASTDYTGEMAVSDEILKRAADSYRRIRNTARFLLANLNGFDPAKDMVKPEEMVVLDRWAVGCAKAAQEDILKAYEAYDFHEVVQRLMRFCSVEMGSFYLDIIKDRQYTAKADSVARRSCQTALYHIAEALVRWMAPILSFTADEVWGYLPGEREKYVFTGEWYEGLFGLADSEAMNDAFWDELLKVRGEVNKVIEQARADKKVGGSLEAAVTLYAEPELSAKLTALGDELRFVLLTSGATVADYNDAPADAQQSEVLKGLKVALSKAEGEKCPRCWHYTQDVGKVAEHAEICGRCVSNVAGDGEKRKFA

CC[C@H](C)[C@H](N)C(=O)N=S(N)(=O)c1ccc2ccccc2c1 (some centres not stated) [US12247004, Compound ANASIA-030]
IC50 (Isoleucine--tRNA ligase): 9.59 µM

CC(C)C[C@H](N)C(=O)N=S(N)(=O)c1cc[nH]n1 (some centres not stated) [US12247004, Compound ANASIA-064]
IC50 (Leucine--tRNA ligase): 2.17 µM
